Data on 2 compounds can be found in patent publication US20180353512A1, “COMBINATION THERAPIES FOR TREATING B-CELL MALIGNANCIES” (GILEAD SCIENCES, INC., priority 2015, published 2018).

For one assay, the system named is pIκBa S32. Nature of the assay: Peggy Sue analysis of TMD-8 Ibrutinib resistant lines. The class given is cell-based. The conditions noted are these: idelalisib 420 nM, Compound B 320 nM. On the procedure:
Lysates were also analyzed by Simple Western using Peggy Sue (ProteinSimple). A standard curve using recombinant proteins was generated to measure PI3K isoform levels on Peggy Sue; data was processed using Compass software (ProteinSimple).
Total protein expression levels and phosphorylation of PI3K, MAPK, BTK and NF-κB components were determined by Western Blot or Peggy Sue. Cells were treated with idelalisib (420 nM), Compound B (320 nM) or in combination. Protein expression level and phosphoproteomics were determined using Western Blot (p-ERK 1/2, p-AKT S473, total AKT) and Peggy Sue (p-BTK, p-IκBα S32, total IκBα), using procedures as described in Example 3B. Results were quantitated after determining the AUC for each group and normalized to DMSO vehicle control.

The test system of assay [1] is c-MYC. Nature of the assay: Immunohistochemistry of TMD8 xenograft tumor samples. The class given is in vivo, mice. The conditions noted are these: PI3Kδ inhibitor 5 mg/kg, Compound B 10 mg/kg; data not shown. On the procedure: (§1) Paraffin sections of the tumor samples were prepared for immunohistochemistry. Slides were prepared with EZ Prep (Ventana Medical Systems) CC1 (Ventana Medical Systems) and rinsed with Reaction Buffer (Ventana Medical Systems). Slides were incubated with ChromoMap Inhibitor (Venatana Medical Systems) and rinsed a Reaction Buffer rinse before incubating with anti-pS6 (S235/236) rabbit monoclonal antibody (Cell Signaling Technology) at 0.02 ug/mL or anti-c-MYC rabbit monoclonal antibody (Abcam Inc.) at 0.3 ug/mL. After 1 hour at room temperature, the slides were incubated sequentially with Anti-Rabbit HQ (Ventana Medical Systems), Anti-HQ HRP (Ventana Medical Systems) hydrogen peroxide CM (Ventana Medical Systems), Copper CM (Ventana Medical Systems), and Hematoxylin II. Slides were imaged using the Leica AT2 digital slide scanner (Leica Microsystems Inc.) and documented in Digital Image Hub (DIH-SlidePath).

The next assay deals with p-S6 S235/236. The description is as above. The class given is in vivo, mice. The conditions noted are these: PI3Kδ inhibitor 5 mg/kg, Compound B 10 mg/kg; data not shown. On the procedure:
as §1

The subject of a further assay is TMD8 tumor xenograft. Nature of the assay: TMD8 tumor xenograft model, tumor volume. The conditions noted are these: oral gavage. More on the design: tumor growth: dose or concentration left out as unconfirmed. The class given is in vivo, mice. As to the method: A TMD8 tumor xenograft model was generated by introducing cultured TMD8 cells into irradiated mice. All animal experiments were performed in accordance with the Institutional Animal Care and Use Committee (IACUC) protocol. Male CB17-SCID mice were treated with 1.44 Gy whole body irradiation using a ^60Co radiation source, and seventy-four hours later, 1×10^7 TMD8 cells were inoculated subcutaneously into the right flank. When tumors reached a mean volume of 200 mm^3, mice were randomly assigned to groups (n=13). […] All test compounds were formulated in 5% (v/v) N-Methyl-2-pyrrolidone (NMP)/55% (v/v) Polyethylene Glycol 300 (PEG) 300/40% (v/v) Water/1% (w/v) Vitamin E D-α-Tocopherol Polyethylene Glycol 1000 Succinate (TPGS). Tumor volume was calculated using the following formula: (length×width^2)/2, where length is the longest diameter across the tumor and width is the corresponding perpendicular diameter. Tumor growth inhibition rate was calculated using the following formula: 1−(tumor sizeend of compound treatment−tumor sizebeginning of compound treatment/tumor sizeend of vehicle treatment−tumor sizebeginning of vehicle treatment)×100.
The Analysis of Variance model for repeated measure was used to determine the treatment effect on tumor growth. The model fitted on tumor volume included factors of treatment, time, and their interaction. […]

Another assay relates to p-BTK. Nature of the assay: Western Blot / Peggy Sue in TMD8^R cells (Example 7). The class given is cell-based. The conditions noted are these: idelalisib 420 nM, Compound B 320 nM. As to the method: (§2) Idelalisib-resistant (TMD8^R) cell line and passage-matched Idelalisib-sensitive (TMD8^S) cell line were generated according to the procedure described in Example 5 above. To characterize the resistant cells, cell viability assays, RNASeq of multidrug resistance (MDR) family of ABC transporter genes (N=33), apoptosis assays, and phosphoprotein analysis were performed. Cell viability was measured using CellTiter-Glo, as described in Example 1A above. Western blot and protein level analysis were performed after treatment with 420 nM idelalisib, 320 nM Compound B and combination thereof, using Peggy Sue (ProteinSimple) automated Western Blot system. Protein concentration (pg/μL) was quantitated using recombinant protein standards. Normalized AUC were determined for each of the treatment groups, normalized to actin. Apoptosis was assessed by propidium iodide and Annexin V/FITC staining and measured by flow cytometry, as described in Example 1A above. Western Blot with anti-p-AKT (S473) antibody and Peggy Sue were used to determine the phosphorylation state of downstream signaling components.
(In general: Immunoblotting shows a protein as a band on a membrane.)

The next assay concerns p-AKT S473. The assay is described as above. The class given is cell-based. The conditions noted are these: idelalisib 420 nM, Compound B 320 nM. As to the method: as §2
A further assay relates to parental TMD-8. Nature of the assay: 96-hour Cell Titer Glo viability assay, parental line. Set-up: Emax: dose or concentration left out as unconfirmed. The conditions noted are these: Homo sapiens.
Assay [2] concerns c-Myc. Nature of the assay: c-Myc RNAseq and western blot in ABC-DLBCL cell lines. The class given is cell-based. On the procedure:
Gene expression levels and mutations were determined by […]. The following bioinformatics platforms were used to analyze the sequence reads: DNA sequencing reads were aligned to human reference genome by BWA. Single nucleotide variants were identified using VarScan and were annotated using SnpEff Putative somatic mutations were prioritized by mutant allele frequency, recurrence and predicted functional impact. RNA sequencing reads were aligned to human reference genome using STAR and RNA abundance was quantified using RSEM. The Bioconductor package edgeR was used to normalize sequence count and limma was used to conduct differential gene expression analysis.
Protein expression was measured using Simple Western, SDS/PAGE and Western Blot or Peggy Sue (ProteinSimple), generally according to the procedures described above in Example 3B. Primary antibodies used to test phosphorylated protein or total protein levels include antibodies against: p-AKT (S473), p-AKT (T308), AKT, p-ERK (T202/Y204), p-S6 (S235/236), S6, p-PDK1 (S241), p-PLCγ2 (Y1217), p-GSK3β (S9), p-STAT3 (Y705), p-IκBα (S32), IκBα, p-SYK (Y525/526), p-BTK (Y223), PI3Kγ, PTEN, and actin.

[3] abbreviates: A20-Q143* line, normalized to DMSO control, DMSO 1.39.
[4] abbreviates: control line, normalized to DMSO vehicle control.

As to `CC#CC(=O)N1CC[C@@H](n2c(=O)n(-c3ccc(Oc4ccccc4)cc3)c3c(N)ncnc32)C1` [Compound B, 6-amino-9-[(3R)-1-(2-butynoyl)-3-pyrrolidinyl]-7-(4-phenoxyphenyl)-7,9-dihydro-8H-purin-8-one], the “pIκBa S32” value amounted to 1.12 in the assay on pIκBa S32 (setting [3]) and 0.62 in the assay on pIκBa S32 (setting [4]). Further, in the assay with c-MYC [1], the “c-MYC signal, IHC” value is listed as “did not reduce”. Moreover, the “p-S6 signal, IHC” value in the assay on p-S6 S235/236 is “did not reduce”. In addition, the tumor growth inhibition in the assay on TMD8 tumor xenograft (10 mg/kg BID, P<0.05) is 75%. Also, the “tumor growth” value in the assay on TMD8 tumor xenograft was “did not inhibit tumor growth”. Further, in the assay on p-BTK, the “p-BTK” value was “inhibited”. Moreover, the “p-AKT” value with p-AKT S473 is reported as “not”.

For the compound `CCC(Nc1ncnc2[nH]cnc12)c1nc2cccc(F)c2c(=O)n1-c1ccccc1` (stereo not shown) [Idelalisib, 2-(1-((9H-Purin-6-yl)amino)propyl)-5-fluoro-3-phenylquinazolin-4(3H)-one], the EC50 in the assay with parental TMD-8 (TMD8, read-out: EC50, cell viability) amounted to 54 nM. The Emax in the assay with parental TMD-8 (TMD8, read-out: Emax, growth inhibition) stood at 86%. Moreover, the results for the “pIκBa S32” value in the assay with pIκBa S32 (setting [3]) and with pIκBa S32 (setting [4]) were 0.92 and 1.09, respectively. Also, the “c-Myc mRNA (RNAseq)” value in the assay on c-Myc [2] (500 nM idelalisib, sensitive cell lines (TMD8 and Ri-1)) was “c-Myc mRNA downregulation”. In the assay with c-Myc [2] (TMD8^S), the “c-Myc (western blot)” value is recorded as “inhibited”. The “p-BTK” value in the assay on p-BTK is reported as “not”. The “p-AKT” value in the assay on p-AKT S473 was “inhibited”.

What is called EC50 is the concentration needed to bring the measured effect to its halfway point.
